# From article PMC10700139 (Nature, 2023)
# Several values for one entry are separate records, joined by “and”; a condition that tells them apart may be missing. Equal values may be shown once.
# Experiments:
# [1] = Stability of isolated 9 in deuterated solvents (1H NMR, LC-MS); assay type: physicochemical; settings: resuspended in CDCl3 or CD3OD, 1H NMR over time
# Method: Also, on drying of our sample from CDCl3, we noted a colour change from yellow/brown to red. Loss of our compound was confirmed through LC–MS analysis. However, we observed that during the course of purification, a compound pertaining to an oxidation of 9 ([…]; equal to 9 + oxygen) accumulated to high concentrations. […] As such, we purified this compound using the same strategy outlined above (yield of about 3 mg) and determined a putative structure (proposed 9′) through NMR analysis. For 9′, deuterated ACN (CD3CN) was used as a solvent and spectra were collected on a Varian Inova 600 MHz NMR spectrometer at room temperature (Supplementary Figs. 12–18).
# PtCAL-1a/PtCAL-2a = biological target: T1, PtCAL-1a/PtCAL-2a (Phlegmariurus tetrastichus, UniProt P0DXL1+P0DXL3); assay: In vitro reactions with apoplastic PtCAL-1a/PtCAL-2a (formation of 9, decarboxylation of 3, Zn chelator); assay type: biochemical
# T1 construct: N-terminal signal peptide[58], which would be cleaved during processing and trafficking of these proteins; made in house; host or cells: Nicotiana benthamiana leaves (Agrobacterium transient co-expression, pEAQ-HT), concentrated apoplast extract
# T1 sequence (P0DXL1 22-280): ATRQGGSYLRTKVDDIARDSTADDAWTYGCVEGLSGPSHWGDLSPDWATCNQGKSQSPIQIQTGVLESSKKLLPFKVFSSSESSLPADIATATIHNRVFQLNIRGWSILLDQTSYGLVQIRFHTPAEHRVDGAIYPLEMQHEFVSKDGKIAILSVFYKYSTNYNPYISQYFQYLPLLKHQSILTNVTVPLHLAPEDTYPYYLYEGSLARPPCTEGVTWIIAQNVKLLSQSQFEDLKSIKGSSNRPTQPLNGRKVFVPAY
# T1 sequence (P0DXL3 24-284): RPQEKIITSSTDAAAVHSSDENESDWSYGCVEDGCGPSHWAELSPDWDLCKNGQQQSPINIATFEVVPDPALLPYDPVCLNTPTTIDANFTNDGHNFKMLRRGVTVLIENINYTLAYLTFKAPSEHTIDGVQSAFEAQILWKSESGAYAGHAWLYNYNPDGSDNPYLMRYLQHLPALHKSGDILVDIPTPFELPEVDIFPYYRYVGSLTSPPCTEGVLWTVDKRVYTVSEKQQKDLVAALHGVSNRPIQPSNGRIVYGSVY
# Text: The three CAL proteins identified in this study have predicted N-terminal signal peptides, which were identified using the TargetP-2.0 server (https://services.healthtech.dtu.dk/service.php?TargetP-2.0)[58]. […] To assess this possibility, CAL genes with or without C-terminal 6xHis tags were transiently expressed in N. benthamiana, as described above. Each CAL gene was expressed individually; also, PtCAL-1a and PtCAL-2a were transiently co-expressed in the same leaf because we had found them to cofunction in Lycopodium alkaloid biosynthesis. At 4 days after Agrobacterium infiltration, apoplast protein extracts were isolated using the infiltration–centrifugation method, much as previously described. Two leaves per reaction were excised from the plant and submerged in ice-cold apoplast extraction buffer (100 mM MES, 300 mM NaCl, pH 5.5) in an open-capped 50 ml Falcon tube and these tubes were placed in a plastic vacuum chamber attached to a Welch Model 2025 vacuum pump. The chamber was brought down to full vacuum and after 2 min at this pressure, the vacuum was slowly released to allow for buffer to infiltrate the leaf apoplastic space. Buffer-infiltrated leaves were carefully removed from the Falcon tubes, blotted dry with paper towels and were then rolled into Parafilm and placed in a plungerless 5 ml plastic syringe. The syringe was placed in a 15 ml Falcon tube and this was then centrifuged at 1,000g and 4 °C for 10 min to collect apoplast extract. The resulting extract was centrifuged at 10,000g and 4 °C for 15 min to pellet any larger cellular debris and the supernatant was concentrated using an Amicon Ultra-4 Centrifugal Filter Unit (10 kDA MWCO, MilliporeSigma UFC501024). Protein concentrations were measured using the BIO-RAD Protein Assay or Bradford assay (Abcam 119216) and adjusted with apoplast extraction buffer to a final concentration between 0.5 and 1.5 mg ml^−1. Aliquots of the extracts were snap frozen in liquid nitrogen and stored at −80 °C.
# Reactions with CAL-enriched apoplast were routinely performed in low-pH potassium phosphate buffer (50 mM potassium phosphate, 100 mM NaCl, pH 5.9) at a volume of 20 µl. For PtCAL-1a/PtCAL-2a, these reactions contained approximately 1.4 µg of apoplast protein for each CAL (final concentration of 0.07 µg µl^−1). Control reactions used apoplast from leaves expressing only one CAL or with apoplast generated from GFP-expression N. benthamiana leaves. The requisite substrates for this reaction were generated through the activities of in vitro PtPIKS-1 and PtCYP782C1 enzyme reactions. […]. To generate 3 and 4 as potential substrates, 1 µg of previously purified PtPIKS-1 enzyme[23] and 150 µM 1 and 300 µM malonyl-CoA were added directly to the CAL reaction mixtures. After thorough mixing, reactions were incubated at room temperature. An alternative route for producing 3 and 4 independently of thioester intermediates was achieved by mixing stocks of 1 (10 mM in water) and 2 (10 mM in water; always prepared fresh to minimize compound decomposition) in equal proportion, followed by incubation at room temp for 1–2 h, as these two substrates can non-enzymatically condense to yield 3 (which can spontaneously decarboxylate to produce 4). A 2 µl aliquot of this mixture was then added as a component of the PtCAL-1a/PtCAL-2a enzyme reaction (20 µl total reaction volume) in addition to the PtCYP782C1 microsomal reaction mixture. After predesignated incubation times, reactions were quenched by diluting tenfold into ACN with 0.1% formic acid.
# To evaluate the potential decarboxylation of β-keto acid substrates by PtCAL-1/PtCAL-2 and PtCAL-3, only 3 or 2, respectively, were added as substrate. PtCAL-1/PtCAL-2 reactions were quenched by diluting aliquots tenfold into ACN with 0.1% formic acid and were subsequently analysed through HILIC LC–MS. PtCAL-3 reactions were quenched by mixing aliquots with an equal volume of water with 0.2% formic acid and were then analysed through C18 LC–MS. […]
smiles,measurement,setting,value
CC1CC2=NCCCC2=C(CC2CCCCN2)C1 (centres unmarked) [compound 9],stability of isolated compound,[1],relatively unstable
same,ion abundance of 9 (m/z 164.1434) over time,"PtCAL-1a/PtCAL-2a; PtCAL-1a/PtCAL-2a +3, +8, +PDCA, +Zn, 0.5 hrs (ED 4i)",127782 and 135642 and 127803
same,ion abundance of 9 (m/z 164.1434) over time,"PtCAL-1a/PtCAL-2a; PtCAL-1a/PtCAL-2a +3, +8, +PDCA, +Zn, 2 hrs (ED 4i)",473171 and 458012 and 448492
same,ion abundance of 9 (m/z 164.1434) over time,"PtCAL-1a/PtCAL-2a; PtCAL-1a/PtCAL-2a +3, +8, +PDCA, +Zn, 6 hrs (ED 4i)",1066834 and 1174532 and 1104641
same,ion abundance of 9 (m/z 164.1434) over time,"PtCAL-1a/PtCAL-2a; PtCAL-1a/PtCAL-2a +3, +8, +PDCA, +Zn, 24 hrs (ED 4i)",1783309 and 1828274 and 1979732
same,ion abundance of 9 (m/z 164.1434) over time,"PtCAL-1a/PtCAL-2a; PtCAL-1a/PtCAL-2a +3, +8, +PDCA, 0.5 hrs (ED 4i)",126896 and 128709 and 118410
same,ion abundance of 9 (m/z 164.1434) over time,"PtCAL-1a/PtCAL-2a; PtCAL-1a/PtCAL-2a +3, +8, +PDCA, 2 hrs (ED 4i)",460080 and 448051 and 514634
same,ion abundance of 9 (m/z 164.1434) over time,"PtCAL-1a/PtCAL-2a; PtCAL-1a/PtCAL-2a +3, +8, +PDCA, 6 hrs (ED 4i)",1133647 and 1079904 and 1109219
same,ion abundance of 9 (m/z 164.1434) over time,"PtCAL-1a/PtCAL-2a; PtCAL-1a/PtCAL-2a +3, +8, +PDCA, 24 hrs (ED 4i)",1692906 and 1937168 and 1863327
same,ion abundance of 9 (m/z 164.1434) over time,"PtCAL-1a/PtCAL-2a; PtCAL-1a/PtCAL-2a +3, +8, 0.17 hrs",5042 and 4513 and 5355
same,ion abundance of 9 (m/z 164.1434) over time,"PtCAL-1a/PtCAL-2a; PtCAL-1a/PtCAL-2a +3, +8, 0.5 hrs (ED 4i)",123276 and 137673 and 112913
same,ion abundance of 9 (m/z 164.1434) over time,"PtCAL-1a/PtCAL-2a; PtCAL-1a/PtCAL-2a +3, +8, 2 hrs (ED 4i)",446630 and 485400 and 412047
same,ion abundance of 9 (m/z 164.1434) over time,"PtCAL-1a/PtCAL-2a; PtCAL-1a/PtCAL-2a +3, +8, 6 hrs (ED 4i)",1143938 and 1142219 and 1013243
same,ion abundance of 9 (m/z 164.1434) over time,"PtCAL-1a/PtCAL-2a; PtCAL-1a/PtCAL-2a +3, +8, 8.00 hrs",777915 and 631565 and 1080330
same,ion abundance of 9 (m/z 164.1434) over time,"PtCAL-1a/PtCAL-2a; PtCAL-1a/PtCAL-2a +3, +8, 20.00 hrs",2280194 and 1799167 and 2350932
same,ion abundance of 9 (m/z 164.1434) over time,"PtCAL-1a/PtCAL-2a; PtCAL-1a/PtCAL-2a +3, +8, 24.00 hrs",2573277 and 1958546 and 2242168
same,ion abundance of 9 (m/z 164.1434) over time,"PtCAL-1a/PtCAL-2a; PtCAL-1a/PtCAL-2a +3, +8, 24 hrs (ED 4i)",1814580 and 1825623 and 1787378
same,ion abundance of 9 (m/z 164.1434) over time,"PtCAL-1a/PtCAL-2a; PtCAL-1a/PtCAL-2a +3, +8, +PtCAL-3, 0.17 hrs",8935 and 8139 and 7454
same,ion abundance of 9 (m/z 164.1434) over time,"PtCAL-1a/PtCAL-2a; PtCAL-1a/PtCAL-2a +3, +8, +PtCAL-3, 0.50 hrs",15312 and 11348 and 14678
same,ion abundance of 9 (m/z 164.1434) over time,"PtCAL-1a/PtCAL-2a; PtCAL-1a/PtCAL-2a +3, +8, +PtCAL-3, 2.00 hrs",132103 and 73247 and 110763
same,ion abundance of 9 (m/z 164.1434) over time,"PtCAL-1a/PtCAL-2a; PtCAL-1a/PtCAL-2a +3, +8, +PtCAL-3, 4.00 hrs",477805 and 480278 and 470081
same,ion abundance of 9 (m/z 164.1434) over time,"PtCAL-1a/PtCAL-2a; PtCAL-1a/PtCAL-2a +3, +8, +PtCAL-3, 8.00 hrs",1471863 and 934058 and 1569447
same,ion abundance of 9 (m/z 164.1434) over time,"PtCAL-1a/PtCAL-2a; PtCAL-1a/PtCAL-2a +3, +8, +PtCAL-3, 24.00 hrs",2382612 and 1957618 and 2845113
